Laboratory results: ChEMBL document CHEMBL1140073, “6-Azido-7-nitro-1,4-dihydroquinoxaline-2,3-dione (ANQX) forms an irreversible bond to the active site of the GluR2 AMPA receptor” (J Med Chem, 2008)

Target: Glutamate receptor 2 (Homo sapiens, UniProt P42262)
Test: Inhibition of GluR2 receptor

Sequence of Glutamate receptor 2 (P42262 whole entry): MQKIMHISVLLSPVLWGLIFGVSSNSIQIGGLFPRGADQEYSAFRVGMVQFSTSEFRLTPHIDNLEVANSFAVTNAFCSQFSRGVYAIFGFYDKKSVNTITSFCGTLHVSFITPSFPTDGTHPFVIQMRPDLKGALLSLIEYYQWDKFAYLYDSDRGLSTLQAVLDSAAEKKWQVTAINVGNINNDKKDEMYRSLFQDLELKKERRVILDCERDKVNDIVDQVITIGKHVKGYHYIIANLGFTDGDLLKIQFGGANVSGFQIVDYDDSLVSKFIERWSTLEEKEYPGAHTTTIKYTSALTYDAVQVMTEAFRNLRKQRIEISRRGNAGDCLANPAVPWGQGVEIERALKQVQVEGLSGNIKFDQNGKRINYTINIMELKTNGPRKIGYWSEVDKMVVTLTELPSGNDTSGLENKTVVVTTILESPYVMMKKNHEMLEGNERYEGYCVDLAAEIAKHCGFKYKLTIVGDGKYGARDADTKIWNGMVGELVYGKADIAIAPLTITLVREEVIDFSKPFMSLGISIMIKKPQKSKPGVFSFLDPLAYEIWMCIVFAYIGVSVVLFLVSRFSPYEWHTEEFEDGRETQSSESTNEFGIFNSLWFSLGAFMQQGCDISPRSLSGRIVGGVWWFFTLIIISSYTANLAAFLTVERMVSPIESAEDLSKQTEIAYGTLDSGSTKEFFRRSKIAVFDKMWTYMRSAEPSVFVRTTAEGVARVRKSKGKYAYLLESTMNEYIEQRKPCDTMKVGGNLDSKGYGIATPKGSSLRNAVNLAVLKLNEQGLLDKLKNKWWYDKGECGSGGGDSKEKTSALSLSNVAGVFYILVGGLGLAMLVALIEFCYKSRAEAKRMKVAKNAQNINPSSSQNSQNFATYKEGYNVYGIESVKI

Row | Compound | IC50
1 | O=c1[nH]c2cc3no[n+]([O-])c3cc2[nH]c1=O | 7.6 µM
2 | [N-]=[N+]=Nc1cc2[nH]c(=O)c(=O)[nH]c2cc1[N+](=O)[O-] | 1 µM
